The source of these data is ChEMBL document CHEMBL1201862, “PubChem BioAssay data set” (2004).

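Cells were grown in 96-well plates and exposed to each compound for 48 hours at five concentrations; endpoints were interpolated linearly between bracketing concentrations, or set to the highest concentration if not reached. Abbreviation: GI50, concentration required for 50% inhibition of growth.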 Activity calls are given as the source filed them. No stated cut-off is given here; in the data, active = GI50 up to about 1.1 µM and inactive = higher.

Common to all, as to experiment: growth of human tumour cells (NCI), 48 h
In experiment [1] the test system is OVCAR-8.
Experiment [2] concerns EKVX.
The test system of experiment [3] is RXF 393.
Experiment [4] deals with TK-10.
The subject of experiment [5] is HOP-92.
Experiment [6] concerns SK-MEL-5.
Experiment [7] deals with COLO 205.
Experiment [8] deals with A498.
Experiment [9] has as its system NCI-H522.
The test system of experiment [10] is LOX IMVI.
Experiment [11] deals with CCRF-CEM.
Experiment [12] concerns OVCAR-5.
The subject of experiment [13] is IGROV-1.
Experiment [14] relates to BT-549.
Experiment [15] concerns UACC-257.
Experiment [16] deals with 786-0.
For experiment [17], the system named is HCT-15.
Experiment [18] relates to OVCAR-3.
The test system of experiment [19] is UACC-62.

Regarding `COC(=O)CCC(C)[C@H]1CCC2C3C(C[C@H](OC(C)=O)[C@@]21C)[C@@]1(C)CCC2(C[C@H]1C[C@H]3OC(C)=O)OOC1(CCC(C(C)(C)C)CC1)OO2` (some centres undefined), the GI50 in experiment [1] is 12.4 µM (inactive); in experiment [2], 4.12 µM (inactive); in [3], > 100 µM (inactive); in experiment [4], 17.7 µM (inactive); in [5], 6.59 µM (inactive); in experiment [6], 22.6 µM (inactive). Further, the GI50 in experiment [7] is > 100 µM (inactive); in experiment [8] it was > 100 µM (inactive); in experiment [9], 21 µM (inactive); in experiment [10], 5.25 µM (inactive); in experiment [11], 5.5 µM (inactive); in [12], > 100 µM (inactive). Besides, the GI50 was 17.1 µM (inactive) in experiment [13]; 33.3 µM (inactive) in experiment [14]; 31.8 µM (inactive) in [15]; 13.5 µM (inactive) in experiment [16]; 50 µM in experiment [17]; 6.85 µM (inactive) in experiment [18].
As to `CC1C2CC(C/C2=N/O)C1(C)C` (centres undefined), the GI50 in experiment [1], in [2], in experiment [3], in [4], in experiment [5] and in experiment [6] was > 100 µM (inactive) throughout. Further, the GI50 in experiment [7], in [8], in [9], in [11], in [19] and in [12] was > 100 µM (inactive) each time. The GI50 in experiment [13], in [14], in experiment [15], in experiment [16] and in experiment [18] was > 100 µM (inactive) each time.
For `CC(C)C1=CC(=O)C(C)(C2C(O)CC3(C)C4CC=C5C(CCC(OC6OC(CO)C(O)C(O)C6OC6OC(C)C(O)C(O)C6O)C5(C)C)C4(C)C(=O)CC23C)O1` (centres undefined), the GI50 in [1], in experiment [2], in experiment [3], in experiment [5], in experiment [6] and in experiment [7] was > 100 µM (inactive) in each case. The GI50 in experiment [8], in experiment [9], in experiment [11], in [19], in experiment [12] and in experiment [13] was > 100 µM (inactive) each time. Besides, the GI50 in experiment [14] was > 100 µM (inactive); in experiment [15] it was > 100 µM (inactive); in experiment [16] it was > 100 µM (inactive); in experiment [17], > 100 µM; in [18], > 100 µM (inactive).
As for `O=C(CSc1nc2ccc(I)cc2c(=O)n1Cc1ccccc1)Nc1ccc(Br)cc1`, the GI50 was 13.4 µM (inactive) in [1]; 12.9 µM (inactive) in experiment [2]; 43.9 µM (inactive) in experiment [3]; 60.3 µM (inactive) in experiment [5]; 43.2 µM (inactive) in experiment [6]; 59.4 µM (inactive) in experiment [7]. Besides, the GI50 was 22.5 µM (inactive) in experiment [8]; 46.7 µM (inactive) in [9]; > 100 µM (inactive) in experiment [10]; > 100 µM (inactive) in [11]; > 100 µM (inactive) in experiment [19]; 44.5 µM (inactive) in experiment [12]. The GI50 in [13] is 29.2 µM (inactive); in [14], 37.1 µM (inactive); in experiment [16] it was 58.6 µM (inactive); in experiment [17] it was 36 µM; in experiment [18] it was 63 µM (inactive).
Consider `CCN1C=C/C(=C\C=C\c2cc[n+](CC)c3ccccc23)c2ccccc21`, for which the GI50 in experiment [1] is 4.28 µM (inactive); in [2], 18.9 µM (inactive); in experiment [3] it was 17.3 µM (inactive); in experiment [4] it was 10.6 µM (inactive); in [5], 12.4 µM (inactive); in experiment [6], 8.99 µM (inactive). In addition, the GI50 in experiment [7] was 3.72 µM (inactive); in experiment [8] it was 3.78 µM (inactive); in [9], 7.43 µM (inactive); in experiment [11], 4.52 µM (inactive); in experiment [19] it was 10.8 µM (inactive); in experiment [12] it was 4.12 µM (inactive). For the same compound, the GI50 was 3.59 µM (inactive) in experiment [13]; 20.7 µM (inactive) in experiment [14]; 3.18 µM (inactive) in [15]; 4.9 µM (inactive) in experiment [16]; 16.4 µM in experiment [17]; 2.49 µM (inactive) in experiment [18].
`COc1cc(S(=O)(=O)Nc2ccc(-c3csc(/N=C\c4ccccc4O)n3)cc2)ccc1Cl`: the GI50 in experiment [1] is > 100 µM (inactive); in [2] it was 29.8 µM (inactive); in experiment [3], 35.6 µM (inactive); in [5], > 100 µM (inactive); in [6] it was 70.5 µM (inactive); in experiment [7], 41.2 µM (inactive). For the same compound, the GI50 in experiment [8] is > 100 µM (inactive); in experiment [9] it was 37.8 µM (inactive); in [10] it was 35.5 µM (inactive); in [11], 22.3 µM (inactive); in [19] it was 31.6 µM (inactive); in experiment [12], > 100 µM (inactive). The GI50 in experiment [13] is 56 µM (inactive); in experiment [14], 43.7 µM (inactive); in experiment [16], > 100 µM (inactive); in experiment [17], 51.4 µM; in [18], 28.5 µM (inactive).
As for `CC(=O)Oc1c(C)c2c(O)c3c1C1=C(OCOC1=C(C)C3=O)/C(C)=C/C(C)(O)C(O)C(C)C(O)C1C(=O)OC(C(C)C1O)C(C)(O)/C=C\C=C(C)C(=O)N2` (centres undefined), the GI50 in [1] was 70 µM (inactive); in experiment [2] it was 10.7 µM (inactive); in [3], 18.5 µM (inactive); in [5], 20.7 µM (inactive); in [6], 32.4 µM (inactive); in experiment [7], 86.5 µM (inactive). The GI50 is 15.1 µM (inactive) in experiment [8]; 49.1 µM (inactive) in [9]; 27.4 µM (inactive) in experiment [10]; 21.5 µM (inactive) in [11]; 30.8 µM (inactive) in experiment [19]; 4.46 µM (inactive) in [12]. The GI50 in experiment [13] was 5.66 µM (inactive); in experiment [14], 19.7 µM (inactive); in experiment [15], > 100 µM (inactive); in experiment [16], 53.7 µM (inactive); in experiment [17], 48.9 µM; in [18], 43.3 µM (inactive).
For `CCC(C)C(C(=O)N/N=C1/SCC(=O)N1C)C(=O)N/N=C1/SCC(=O)N1C` (centres undefined), the GI50 in experiment [1], in [2], in [3], in experiment [4], in [5] and in experiment [6] was > 100 µM (inactive) each time. For the same compound, the GI50 in experiment [7], in experiment [8], in experiment [9], in experiment [10], in [19] and in [12] was > 100 µM (inactive) each time. For the same compound, the GI50 in [13] is > 100 µM (inactive); in experiment [14], > 100 µM (inactive); in [15], > 100 µM (inactive); in [16] it was > 100 µM (inactive); in experiment [17] it was > 100 µM; in experiment [18], > 100 µM (inactive).
Consider `C/C=C\C(CC(=O)O)CC(=O)NCCC1CN(S(=O)(=O)C(F)(F)F)c2ccccc21` (centres undefined), for which the GI50 in [1], in experiment [2], in experiment [3], in [5], in experiment [6] and in [7] was > 100 µM (inactive) throughout. Besides, the GI50 in [8], in experiment [9], in experiment [10], in experiment [11], in experiment [19] and in experiment [12] was > 100 µM (inactive) each time. In addition, the GI50 is > 100 µM (inactive) in experiment [13]; > 100 µM (inactive) in experiment [14]; > 100 µM (inactive) in experiment [15]; > 100 µM (inactive) in [16]; > 100 µM in [17]; > 100 µM (inactive) in experiment [18].
Regarding `COc1cc2c(cc1O)[C@]1(Cc3ccc4c(c3C1=O)OCO4)N(C)CC2`, the GI50 in experiment [1], in experiment [2], in experiment [3], in experiment [4], in experiment [5] and in experiment [6] was > 100 µM (inactive) in each case. For the same compound, the GI50 in experiment [7], in experiment [8], in [9], in experiment [11], in [19] and in [12] was > 100 µM (inactive) each time. Further, the GI50 in [13] was > 100 µM (inactive); in experiment [14] it was > 100 µM (inactive); in [15], > 100 µM (inactive); in experiment [16] it was > 100 µM (inactive); in experiment [17], > 100 µM; in experiment [18] it was > 100 µM (inactive).
For the compound `Oc1cc(Cc2ccccc2)c(Cc2ccccc2)cc1O`, the GI50 in experiment [1], in experiment [2], in experiment [3], in experiment [5], in [6] and in experiment [7] was > 10 µM (inactive) in each case. Also, the GI50 in experiment [8], in [9], in experiment [10], in [11], in experiment [19] and in [12] was > 10 µM (inactive) each time. Also, the GI50 in [13] is > 10 µM (inactive); in [14], > 10 µM (inactive); in experiment [15], > 10 µM (inactive); in experiment [16] it was > 10 µM (inactive); in [17], > 10 µM; in [18], > 10 µM (inactive).
